What was measured:
[1] = test system: ovariectomized osteoporosis rat model; test: serum bone turnover markers by automatic serum biochemical analyzer; assay type: in vivo, SD rats
Experimental: 1, the construction of ovariectomized rats models: SD rats are kept in a clean environment under a controlled room temperature at 25±2° C. and alternates 12/12 light and dark every day, and the SD rats feed freely. After one week adaptive feeding, randomly select 8 female rats, anesthetize them with 1% (v/v) pentobarbital sodium (40 mg/kg BW), and remove a little fat near ovaries. The remaining 40 rats are ovariectomized after being anesthetized with pentobarbital sodium. The recovery situation is observed in a 4-week recovery period, and their weight changes are detected. These are prepared by the applicant in advance. (any research about metabolic fingerprint changes of ovariectomized osteoporotic rats after intervention with bone peptide have not been reported according to the existing literature). 2, animal grouping and samples collection: the 8 female rats with a little fat near ovaries removed are selected as a sham-operated group, the ovariectomized 40 rats are randomly divided into 5 groups with 8 rats in each group, and are named by a negative control group, a positive control group, a low-concentration treatment group, a medium-concentration treatment group and a high-concentration treatment group. The rats are perfused by different solutions of bovine bone peptide (diluted by ultrapure water, and sterilized) with concentration of 100 mg/kg, 200 mg/kg, and 500 mg/kg according to the weights of the rats. The rats in the negative control group are perfused with equal volume of ultrapure sterile water (a perfusing volume is generally 1-2 mL/100 g BW), and the rats in the positive control group are perfused with 50 μg/kg of 17β-estradiol (ES). Observe weight changes of the rats and measure the weights every two weeks. Urine is automatically collected with a metabolic cage for 12 hours every 4 weeks (the urine is collected as much as possible under the premise of ensuring normal signs of the rats). 1 mmol/L NaN3 solution is added into collected urine as a preservative, the collected urine is placed in a centrifuge at 4° C. and centrifuged at a speed of 10000×g for 10 minutes, and the supernatant is collected, distributed and stored in a refrigerator at −80° C. for determining. The rats are fasted for 12 hours at 4th week, 8th week, and 12th week. Fasted rats are anesthetized by intraperitoneal injection of pentobarbital sodium (40 mg/kg BW) with a volume concentration of 1%, and are subjected to blood collection from the abdominal aorta (the blood is collected as much as possible under the premise of ensuring normal signs of the rats). Collected blood is placed at 4° C. for 3 h and is centrifuged (5000 rpm) for 10 minutes. Upper serum is collected (collecting 2 mL of blood, separating into 4 tubes after separating the serum), is divided into 0.5 mL EP tubes, and stored in a refrigerator at −80° C. for later use. The metabolic cage comprises a cage body with a bottom and a metabolite collecting part. The metabolite collecting part is arranged below the cage body and comprises a barrel 1 and a cover 2 mounted on an upper end of a peripheral wall of a first side of the barrel, an upper end of a peripheral wall of a second side of the barrel is provided with a drainage port, and a solid-liquid separating part is arranged in the barrel. The solid-liquid separating part comprises an arc-shaped partition plate 3 with a first end fixed with a peripheral wall of the barrel and multi-stage filter plates 4, which divide an inner space of the barrel into a first accommodating space and a second accommodating space. The multi-stage filter plates are arranged in the second accommodating space along a vertical direction, and the multi-stage filter plates are successively arranged end to end to form a folded-line diversion channel. A depth of a bottom wall of the barrel from the first side to the second side becomes larger. […]

[2] = test system: ovariectomized osteoporosis rat model; test: non-targeted serum metabolomics (UPLC/Q-TOF-MS); assay type: in vivo, SD rats; conditions: ES group vs Model group
Experimental: 1, the construction of ovariectomized rats models: SD rats are kept in a clean environment under a controlled room temperature at 25±2° C. and alternates 12/12 light and dark every day, and the SD rats feed freely. After one week adaptive feeding, randomly select 8 female rats, anesthetize them with 1% (v/v) pentobarbital sodium (40 mg/kg BW), and remove a little fat near ovaries. The remaining 40 rats are ovariectomized after being anesthetized with pentobarbital sodium. The recovery situation is observed in a 4-week recovery period, and their weight changes are detected. These are prepared by the applicant in advance. (any research about metabolic fingerprint changes of ovariectomized osteoporotic rats after intervention with bone peptide have not been reported according to the existing literature).
2, animal grouping and samples collection: the 8 female rats with a little fat near ovaries removed are selected as a sham-operated group, the ovariectomized 40 rats are randomly divided into 5 groups with 8 rats in each group, and are named by a negative control group, a positive control group, a low-concentration treatment group, a medium-concentration treatment group and a high-concentration treatment group. The rats are perfused by different solutions of bovine bone peptide (diluted by ultrapure water, and sterilized) with concentration of 100 mg/kg, 200 mg/kg, and 500 mg/kg according to the weights of the rats. The rats in the negative control group are perfused with equal volume of ultrapure sterile water (a perfusing volume is generally 1-2 mL/100 g BW), and the rats in the positive control group are perfused with 50 μg/kg of 17β-estradiol (ES). Observe weight changes of the rats and measure the weights every two weeks.
Urine is automatically collected with a metabolic cage for 12 hours every 4 weeks (the urine is collected as much as possible under the premise of ensuring normal signs of the rats). 1 mmol/L NaN3 solution is added into collected urine as a preservative, the collected urine is placed in a centrifuge at 4° C. and centrifuged at a speed of 10000×g for 10 minutes, and the supernatant is collected, distributed and stored in a refrigerator at −80° C. for determining. The rats are fasted for 12 hours at 4th week, 8th week, and 12th week. Fasted rats are anesthetized by intraperitoneal injection of pentobarbital sodium (40 mg/kg BW) with a volume concentration of 1%, and are subjected to blood collection from the abdominal aorta (the blood is collected as much as possible under the premise of ensuring normal signs of the rats). Collected blood is placed at 4° C. for 3 h and is centrifuged (5000 rpm) for 10 minutes. Upper serum is collected (collecting 2 mL of blood, separating into 4 tubes after separating the serum), is divided into 0.5 mL EP tubes, and stored in a refrigerator at −80° C. for later use. The metabolic cage comprises a cage body with a bottom and a metabolite collecting part. The metabolite collecting part is arranged below the cage body and comprises a barrel 1 and a cover 2 mounted on an upper end of a peripheral wall of a first side of the barrel, an upper end of a peripheral wall of a second side of the barrel is provided with a drainage port, and a solid-liquid separating part is arranged in the barrel. The solid-liquid separating part comprises an arc-shaped partition plate 3 with a first end fixed with a peripheral wall of the barrel and multi-stage filter plates 4, which divide an inner space of the barrel into a first accommodating space and a second accommodating space. The multi-stage filter plates are arranged in the second accommodating space along a vertical direction, and the multi-stage filter plates are successively arranged end to end to form a folded-line diversion channel. A depth of a bottom wall of the barrel from the first side to the second side becomes larger. […]

[3] = treatment groups and ES group vs Model group
[4] = vs Model group, P<0.05, YBP 100/200/500 mg/kg, ES 50 μg/kg perfused

C[C@]12CC[C@@H]3c4ccc(O)cc4CC[C@H]3[C@@H]1CC[C@@H]2O [ES, 17β-estradiol]
content of DPD [1, 3]: on a decline trend | content of PINP [1, 3]: on a decline trend | content of S-CTX [1, 3]: on a decline trend | content of TRAP [1, 3]: on a decline trend | content of B-ALP (bone alkaline phosphatase) [1, 4]: significantly increased | content of BGP (bone gamma-carboxyglutamic acid containing proteins) [1, 4]: significantly increased | serum 1-O-(cis-9-octadecenyl)-2-O-acetyl-sn-glycerol-3-phosphocholine change [2]: up-regulated trend | serum 1-oleoyl-sn-glycerol-3-phosphocholine change [2]: up-regulated trend | serum 1-palmitoyl-sn-glycerol-3-phosphocholine change [2]: up-regulated trend | serum 1-stearoyl-sn-glycerol-3-phosphocholine change [2]: up-regulated trend | serum L-palmitoyl change [2]: up-regulated trend | serum L-pyroglutamic acid change [2]: down-regulated trend | serum isoleucine-arginine change [2]: down-regulated trend | serum pantothenic acid change [2]: up-regulated trend
